{"source": "patent US20080161248A1", "about": "“Methods and Compositions for Therapeutic Treatment” (priority 2006, published 2008)", "key": {"[1]": {"conditions": "cited from earlier work"}, "[2]": {"conditions": "cited from earlier work", "remark": "listed apart in the source"}, "[3]": {"conditions": "US heart transplantation study; cited from earlier work"}, "[4]": {"test_system": "mouse spleen cells, response to Con A", "assay": "In vitro Con A assay on spleen cells", "format": "cell-based", "conditions": "high ([…]10^6 cells/well) and low (8×10^5 cells/well) cell concentration", "text": "Animals: 8-9 weeks-old Lewis and Brown Norway male rats were obtained from Charles River Laboratories. General procedures for animal care and housing was in accordance with the National Research Council (NRC) Guide for the Care and Use of Laboratory Animals (1996) and the Animal Welfare Standards incorporated in 9 CFR Part 3, 1991.\nSpleens were collected for use in in vitro Con A and LPS assays.\nResults: FIGS. 8 and 9 show the effect of quercetin and tacrolimus on response of mouse spleen cells to Con A at a high (1.6×10^6 cells/well) and low (8×10^5 cells/well) cell concentration, respectively.\nSpleen cells were treated with Con A in the presence of vehicle, tacrolimus, quercetin or two different concentrations of tacrolimus (10^−8.2 and 10^−8.5 M) and increasing doses of quercetin at a high cell concentration (FIG. 14) or at a low cell concentration (FIG. 15). […] There was no significance difference between the effect of quercetin on tacrolimus induced cell suppression in vitro at the different concentrations used for quercetin."}, "[5]": {"conditions": "cited from earlier work", "remark": "listed apart in the source"}, "murine or human T cells": {"test_system": "murine or human T cells", "conditions": "cited from earlier work"}, "[6]": {"test_system": "LEW responder splenocytes with irradiated BN stimulators (lymphocyte proliferation)", "assay": "Mixed lymphocyte reaction (MLR) with spleen cells of treated Lewis rats", "format": "cell-based, rat", "conditions": "Lewis rats 1 mg/kg i.v.; spleens 4 hr after dosing; R:S ratios 0.5:1, 1:1, 5:1", "description": "Animals: 8-9 weeks-old Lewis and Brown Norway male rats were obtained from Charles River Laboratories. […] Treatment: Lewis rats were treated with different single doses of LNS 0694i.p. 30 minutes prior to single i.v. injections of tacrolimus at a concentration of 1 mg/kg as described in the table below. Spleens were collected at 4 hr after administration of FK506 for use in the in vitro mixed lymphocyte reaction (MLR) and Con A assays. […] Mixed lymphocyte reactions: A single cell suspension of the spleen of each rat on test (LEW, responder) was prepared with a Dounce homogenizer and wash-medium. The cell suspension was depleted of red blood cells (treatment with NH4CL/Tris buffer) and washed twice with wash medium before resuspending in complete medium (CM; […] A single cell suspension of splenocytes from five Brown Norway rats (BN, stimulators) was prepared with the same method. The BN splenocytes were pooled and irradiated with 1,500-2,000 rad (cesium source) before use. Varying numbers of responder cells were mixed with a constant number of stimulators (105) in 96-well, U-bottom cell culture plates to give a final responder:stimulator (R:S) ratio of 10:1,5: 1, 1:1 and 0.5:1 in 200 μl CM. […] The results of the MLR assays [thymidine incorporation as counts per minute (CPM)] are expressed as mean ±SD."}, "[7]": {"conditions": "liver transplantation, European study, 12-month post-transplant; cited from earlier work"}, "[8]": {"conditions": "mice, mdr1 gene depleted; cited from earlier work"}, "[9]": {"conditions": "kidney transplant patients, cited from earlier work"}, "[10]": {"conditions": "body surface area corrections, cited from earlier work"}}, "note": "Read-outs that look alike come from different tables or passages of the source.", "data": [{"smiles": "C=CC[C@@H]1/C=C(\\C)C[C@H](C)C[C@H](OC)C2O[C@@](O)(C(=O)C(=O)N3CCCC[C@H]3C(=O)O[C@H](/C(C)=C/[C@@H]3CC[C@@H](O)[C@H](OC)C3)[C@H](C)[C@@H](O)CC1=O)[C@H](C)C[C@@H]2OC", "note": "(relative stereo) [Prograf, [3S-[3R[E(1S*,3S*,4S*)], 4S*,5R*,8S*,9E,12R*,14R*,15S*,16R*,18S*,19S*,26aR*]]-,6,8,11,12,13,14,15,16,17,18,19,24,25,26,26a-hexadecahydro-5,19-dihydroxy-3-[2-(4-hydroxy-3-methoxycyclohexyl)-1-methylethenyl]-14,16-dimethoxy-4,10,12,18-tetramethyl-8-(2-propenyl)-15,19-epoxy-3H-pyrido[2,1-c][1,4]oxaazacyclotricosine-1,7,20,21 (4H,23H)-tetrone, monohydrate]", "values": [{"measurement": "erythrocyte and plasma protein binding", "setting": "[1]", "value": "extensive"}, {"measurement": "aqueous solubility", "setting": "[2]", "value": "poor"}, {"measurement": "Other targeted treatment-emergent adverse events (Cushingoid features, impaired wound healing, hyperkalemia, Candida infection, CMV infection/syndrome), rate", "setting": "[3]", "value": "less than 15%"}, {"measurement": "effect on response of spleen cells to Con A (proliferation)", "setting": "[4]", "value": "inhibited Con A-induced proliferation in a dose dependent manner"}, {"measurement": "Neurotoxicity, including tremor, headache, and other changes in motor function, mental status, and sensory function", "setting": "[5]; liver transplant recipients, two randomized studies", "value": "approximately 55%"}, {"measurement": "proportion of patients reporting more than one adverse event", "setting": "[5]; two randomized comparative liver transplant trials", "value": 99.8, "unit": "%"}, {"measurement": "concentrations inhibiting proliferation of stimulated T cells", "setting": "murine or human T cells; T cells stimulated by specific antigens, antibodies to TCR/CD3 or mitogenic lectins", "value": "subnanomolar"}, {"measurement": "potency relative to cyclosporin A (CsA)", "setting": "murine or human T cells; higher potency than CsA, disrupting calcium signaling leading to lymphokine production", "value": "50-100 fold"}, {"measurement": "effect on MLR (lymphocyte proliferation, thymidine incorporation)", "setting": "[6]", "value": "inhibited MLR"}, {"measurement": "Adverse event: Abdominal Pain", "setting": "[7]", "value": 29, "unit": "%"}, {"measurement": "Adverse event: Anemia", "setting": "[7]", "value": 5, "unit": "%"}, {"measurement": "Adverse event: Anorexia", "setting": "[7]", "value": 7, "unit": "%"}, {"measurement": "Adverse event: Ascites", "setting": "[7]", "value": 7, "unit": "%"}, {"measurement": "Adverse event: Asthenia", "setting": "[7]", "value": 11, "unit": "%"}, {"measurement": "Adverse event: Atelectasis", "setting": "[7]", "value": 5, "unit": "%"}, {"measurement": "Adverse event: BUN Increased", "setting": "[7]", "value": 12, "unit": "%"}, {"measurement": "Adverse event: Back Pain", "setting": "[7]", "value": 17, "unit": "%"}, {"measurement": "Adverse event: Constipation", "setting": "[7]", "value": 23, "unit": "%"}, {"measurement": "Adverse event: Creatinine Increased", "setting": "[7]", "value": 24, "unit": "%"}, {"measurement": "Adverse event: Diarrhea", "setting": "[7]", "value": 37, "unit": "%"}, {"measurement": "Adverse event: Dyspnea", "setting": "[7]", "value": 5, "unit": "%"}, {"measurement": "Adverse event: Fever", "setting": "[7]", "value": 19, "unit": "%"}, {"measurement": "Adverse event: Headache", "setting": "[7]", "value": 37, "unit": "%"}, {"measurement": "Adverse event: Hyperglycemia", "setting": "[7]", "value": 33, "unit": "%"}, {"measurement": "Adverse event: Hyperkalemia", "setting": "[7]", "value": 13, "unit": "%"}, {"measurement": "Adverse event: Hypertension", "setting": "[7]", "value": 38, "unit": "%"}, {"measurement": "Adverse event: Hypokalemia", "setting": "[7]", "value": 13, "unit": "%"}, {"measurement": "Adverse event: Hypomagnesemia", "setting": "[7]", "value": 16, "unit": "%"}, {"measurement": "Adverse event: Insomnia", "setting": "[7]", "value": 32, "unit": "%"}, {"measurement": "Adverse event: Kidney Function Abnormal", "setting": "[7]", "value": 36, "unit": "%"}, {"measurement": "Adverse event: LFT Abnormal", "setting": "[7]", "value": 6, "unit": "%"}, {"measurement": "Adverse event: Leukocytosis", "setting": "[7]", "value": 8, "unit": "%"}, {"measurement": "Adverse event: Nausea", "setting": "[7]", "value": 32, "unit": "%"}, {"measurement": "Adverse event: Oliguria", "setting": "[7]", "value": 19, "unit": "%"}, {"measurement": "Adverse event: Pain", "setting": "[7]", "value": 24, "unit": "%"}, {"measurement": "Adverse event: Paresthesia", "setting": "[7]", "value": 17, "unit": "%"}, {"measurement": "Adverse event: Peripheral Edema", "setting": "[7]", "value": 12, "unit": "%"}, {"measurement": "Adverse event: Pleural Effusion", "setting": "[7]", "value": 36, "unit": "%"}, {"measurement": "Adverse event: Pruritus", "setting": "[7]", "value": 15, "unit": "%"}, {"measurement": "Adverse event: Rash", "setting": "[7]", "value": 10, "unit": "%"}, {"measurement": "Adverse event: Thrombocytopenia", "setting": "[7]", "value": 14, "unit": "%"}, {"measurement": "Adverse event: Tremor", "setting": "[7]", "value": 48, "unit": "%"}, {"measurement": "Adverse event: Urinary Tract Infection", "setting": "[7]", "value": 21, "unit": "%"}, {"measurement": "Adverse event: Vomiting", "setting": "[7]", "value": 14, "unit": "%"}, {"measurement": "concentration in the brain", "setting": "[8]", "value": "markedly increased"}, {"measurement": "Adverse event: Abdominal Pain", "setting": "[9]", "value": 33, "unit": "%"}, {"measurement": "Adverse event: Anemia", "setting": "[9]", "value": 30, "unit": "%"}, {"measurement": "Adverse event: Arthralgia", "setting": "[9]", "value": 25, "unit": "%"}, {"measurement": "Adverse event: Asthenia", "setting": "[9]", "value": 34, "unit": "%"}, {"measurement": "Adverse event: Back Pain", "setting": "[9]", "value": 24, "unit": "%"}, {"measurement": "Adverse event: Chest pain", "setting": "[9]", "value": 19, "unit": "%"}, {"measurement": "Adverse event: Constipation", "setting": "[9]", "value": 35, "unit": "%"}, {"measurement": "Adverse event: Cough Increased", "setting": "[9]", "value": 18, "unit": "%"}, {"measurement": "Adverse event: Creatinine Increased", "setting": "[9]", "value": 45, "unit": "%"}, {"measurement": "Adverse event: Diabetes Mellitus", "setting": "[9]", "value": 24, "unit": "%"}, {"measurement": "Adverse event: Diarrhea", "setting": "[9]", "value": 44, "unit": "%"}, {"measurement": "Adverse event: Dizziness", "setting": "[9]", "value": 19, "unit": "%"}, {"measurement": "Adverse event: Dyspepsia", "setting": "[9]", "value": 28, "unit": "%"}, {"measurement": "Adverse event: Dyspnea", "setting": "[9]", "value": 22, "unit": "%"}, {"measurement": "Adverse event: Edema", "setting": "[9]", "value": 18, "unit": "%"}, {"measurement": "Adverse event: Fever", "setting": "[9]", "value": 29, "unit": "%"}, {"measurement": "Adverse event: Headache", "setting": "[9]", "value": 44, "unit": "%"}, {"measurement": "Adverse event: Hyperglycemia", "setting": "[9]", "value": 22, "unit": "%"}, {"measurement": "Adverse event: Hyperkalemia", "setting": "[9]", "value": 31, "unit": "%"}, {"measurement": "Adverse event: Hyperlipemia", "setting": "[9]", "value": 31, "unit": "%"}, {"measurement": "Adverse event: Hypertension", "setting": "[9]", "value": 50, "unit": "%"}, {"measurement": "Adverse event: Hypokalemia", "setting": "[9]", "value": 22, "unit": "%"}, {"measurement": "Adverse event: Hypomagnesemia", "setting": "[9]", "value": 34, "unit": "%"}, {"measurement": "Adverse event: Hypophosphatemia", "setting": "[9]", "value": 49, "unit": "%"}, {"measurement": "Adverse event: Infection", "setting": "[9]", "value": 45, "unit": "%"}, {"measurement": "Adverse event: Insomnia", "setting": "[9]", "value": 32, "unit": "%"}, {"measurement": "Adverse event: Leukopenia", "setting": "[9]", "value": 15, "unit": "%"}, {"measurement": "Adverse event: Nausea", "setting": "[9]", "value": 38, "unit": "%"}, {"measurement": "Adverse event: Pain", "setting": "[9]", "value": 32, "unit": "%"}, {"measurement": "Adverse event: Paresthesia", "setting": "[9]", "value": 23, "unit": "%"}, {"measurement": "Adverse event: Peripheral Edema", "setting": "[9]", "value": 36, "unit": "%"}, {"measurement": "Adverse event: Pruritus", "setting": "[9]", "value": 15, "unit": "%"}, {"measurement": "Adverse event: Rash", "setting": "[9]", "value": 17, "unit": "%"}, {"measurement": "Adverse event: Urinary Tract Infection", "setting": "[9]", "value": 34, "unit": "%"}, {"measurement": "Adverse event: Vomiting", "setting": "[9]", "value": 29, "unit": "%"}, {"measurement": "Adverse event: Tremor", "setting": "[9]; monohydrate", "value": 54, "unit": "%"}, {"measurement": "dose at or above which mortalities were seen", "setting": "[10]; adult rats, IV", "value": "≥ 16 × the recommended human IV dose"}, {"measurement": "dose at or above which mortalities were seen", "setting": "[10]; adult rats, oral", "value": "≥ 52 × the recommended human oral dose"}, {"measurement": "dose at or above which mortalities were seen", "setting": "[10]; immature rats, oral", "value": "≥ 16 × the recommended oral dose"}]}]}
